In patent publication US12129246B1, “Hydroquinazoline derivatives for the treatment of a disease or disorder” (Novartis AG, priority 2023, dated 2024):
Read-outs that look alike come from different tables or passages of the source.

Key:
[1] = molecular target: T1, human NPR1 (Homo sapiens, UniProt P16066); assay: Cellular cGMP production assay, human NPR1 expressing CHO-K1 cells (CisBio HTRF); format: cell-based; conditions: for AC50: cGMP production, 30 min at 37° C., 12-point dose-response from 30 μM; for Human NPR1 Amax (% of ANP): maximum cGMP production as percentage of the maximum cGMP produced with ANP
T1 construct: host or cells: CHO-K1
T1 sequence (P16066 33-1061): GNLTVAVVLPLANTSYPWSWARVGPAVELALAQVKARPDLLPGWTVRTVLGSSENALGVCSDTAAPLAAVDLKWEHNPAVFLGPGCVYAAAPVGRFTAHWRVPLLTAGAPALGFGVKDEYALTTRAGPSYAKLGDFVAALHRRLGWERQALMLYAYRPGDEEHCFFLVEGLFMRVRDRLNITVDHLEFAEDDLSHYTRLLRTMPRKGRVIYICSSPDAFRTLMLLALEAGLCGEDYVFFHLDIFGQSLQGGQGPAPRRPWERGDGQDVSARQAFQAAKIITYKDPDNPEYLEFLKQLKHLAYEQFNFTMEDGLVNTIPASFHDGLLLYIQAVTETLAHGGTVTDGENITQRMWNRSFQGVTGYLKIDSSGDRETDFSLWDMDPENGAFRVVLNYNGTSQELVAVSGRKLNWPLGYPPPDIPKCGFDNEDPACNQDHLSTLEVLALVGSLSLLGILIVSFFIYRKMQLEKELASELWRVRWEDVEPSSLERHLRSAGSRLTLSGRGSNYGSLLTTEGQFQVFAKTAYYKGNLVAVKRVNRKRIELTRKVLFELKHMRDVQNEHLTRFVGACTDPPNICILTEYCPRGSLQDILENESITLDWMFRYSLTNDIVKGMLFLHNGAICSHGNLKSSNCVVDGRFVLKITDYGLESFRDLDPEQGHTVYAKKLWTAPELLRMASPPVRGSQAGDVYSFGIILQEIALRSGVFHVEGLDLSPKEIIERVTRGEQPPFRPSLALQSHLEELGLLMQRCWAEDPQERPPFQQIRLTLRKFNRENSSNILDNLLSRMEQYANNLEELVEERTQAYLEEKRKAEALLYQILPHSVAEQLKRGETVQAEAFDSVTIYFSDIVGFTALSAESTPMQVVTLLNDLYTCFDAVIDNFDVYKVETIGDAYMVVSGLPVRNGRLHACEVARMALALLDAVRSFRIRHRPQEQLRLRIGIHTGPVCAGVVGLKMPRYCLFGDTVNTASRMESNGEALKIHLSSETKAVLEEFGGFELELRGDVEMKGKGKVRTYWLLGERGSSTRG
Outline: (§1)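 Read-out was HTRF (excitation 317 nm, emission 665 nm), with cGMP quantified as Delta F against a calibrator standard curve. Beforehand, cells were exposed for 30 min at 37 °C to compound (30 μM top, twelve 3-fold steps) in IBMX-containing PBS/BSA buffer, then lysed.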

[2] = molecular target: monkey NPR1 (Macaca fascicularis, UniProt A0A7N9DBT9); assay: Cellular cGMP production assay, monkey NPR1 expressing CHO-K1 cells (CisBio HTRF); format: cell-based; conditions: for Monkey NPR1 Amax (% of ANP): maximum cGMP production as percentage of the maximum cGMP produced with ANP
Chain of monkey NPR1 (A0A7N9DBT9 entry or part of it): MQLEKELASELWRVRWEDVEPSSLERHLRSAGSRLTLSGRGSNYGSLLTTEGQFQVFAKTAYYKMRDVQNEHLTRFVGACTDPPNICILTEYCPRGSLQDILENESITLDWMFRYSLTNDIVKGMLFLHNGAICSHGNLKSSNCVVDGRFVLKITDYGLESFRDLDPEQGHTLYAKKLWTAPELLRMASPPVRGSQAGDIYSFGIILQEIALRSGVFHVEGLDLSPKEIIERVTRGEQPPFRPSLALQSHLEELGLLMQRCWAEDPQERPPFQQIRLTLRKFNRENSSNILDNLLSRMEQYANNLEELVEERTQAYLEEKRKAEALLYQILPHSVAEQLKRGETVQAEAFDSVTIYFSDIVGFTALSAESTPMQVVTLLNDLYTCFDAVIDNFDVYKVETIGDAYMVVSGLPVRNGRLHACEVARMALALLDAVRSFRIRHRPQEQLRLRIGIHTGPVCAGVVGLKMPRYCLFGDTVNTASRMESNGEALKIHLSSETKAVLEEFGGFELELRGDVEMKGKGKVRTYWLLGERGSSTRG
Outline: as §1

[3] = cGMP production, monkey NPR1 CHO-K1 cells, 30 min at 37° C., 12-point dose-response from 30 μM, read-out: Monkey NPR1 AC50

Compound | AC50 [1] [nM] | Human NPR1 Amax (% of ANP) [1] | AC50 [2, 3] [nM] | Monkey NPR1 Amax (% of ANP) ([2]; monkey NPR1 CHO-K1 cells) | AC50 [2] [nM]
CC[C@H]([C@H]1CC[C@H](C(=O)O)CC1)N(C)c1nc2c(c(N[C@@H](CN3CCC[C@H](COC)C3)c3cnn(C)c3)n1)C[C@H](c1ccccc1)CC2 [Compound 83, (1R,4r)-4-((R)-1-(((R)-4-(((R)-2-((S)-3-(methoxymethyl)piperidin-1-yl)-1-(1-methyl-1H-pyrazol-4-yl)ethyl)amino)-6-phenyl-5,6,7,8-tetrahydroquinazolin-2-yl)(methyl)amino)propyl)cyclohexane-1-carboxylic acid] | 282 | 98.117 % of ANP | 173 | 98.205 % of ANP | 
CC[C@@H](Nc1nc2c(c(N[C@@H](CN3CCC[C@@H](C)C3)c3cnn(C)c3)n1)C[C@H](c1ccccc1)CC2)[C@H]1CC[C@H](C(=O)O)CC1 [Compound 84, (1R,4r)-4-((R)-1-(((R)-4-(((R)-1-(1-methyl-1H-pyrazol-4-yl)-2-((R)-3-methylpiperidin-1-yl)ethyl)amino)-6-phenyl-5,6,7,8-tetrahydroquinazolin-2-yl)amino)propyl)cyclohexane-1-carboxylic acid] | 284 | 100.223 % of ANP | 191 | 102.883 % of ANP | 
CC[C@@H](Nc1nc2c(c(N[C@@H](CN3CCCC3)c3ccccc3)n1)C[C@H](c1ccccc1)CC2)[C@H]1CC[C@H](C(=O)O)CC1 [Compound 85, (1R,4r)-4-((R)-1-(((R)-6-phenyl-4-(((R)-1-phenyl-2-(pyrrolidin-1-yl)ethyl)amino)-5,6,7,8-tetrahydroquinazolin-2-yl)amino)propyl)cyclohexane-1-carboxylic acid] | 285 | 102.461 % of ANP | 238 | 95.638 % of ANP | 
CC[C@@H](Nc1nc2c(c(N[C@@H](CN3CC4CCC3C4)c3ccc(F)cc3)n1)C[C@H](c1ccccc1)CC2)[C@H]1CC[C@H](C(=O)O)CC1 (stereo partly drawn) [Compound 86, (1R,4r)-4-((1R)-1-(((6R)-4-(((1R)-2-(2-azabicyclo[2.2.1]heptan-2-yl)-1-(4-fluorophenyl)ethyl)amino)-6-phenyl-5,6,7,8-tetrahydroquinazolin-2-yl)amino)propyl)cyclohexane-1-carboxylic acid] | 286 | 101.050 % of ANP | 192 | 92.318 % of ANP | 
CC[C@H]([C@H]1CC[C@H](C(=O)O)CC1)N(C)c1nc2c(c(N[C@@H](CN3CCC[C@H](CF)C3)c3cnn(C)c3)n1)C[C@H](c1ccccc1)CC2 [Compound 87, (1R,4r)-4-((R)-1-(((R)-4-(((R)-2-((S)-3-(fluoromethyl)piperidin-1-yl)-1-(1-methyl-1H-pyrazol-4-yl)ethyl)amino)-6-phenyl-5,6,7,8-tetrahydroquinazolin-2-yl)(methyl)amino)propyl)cyclohexane-1-carboxylic acid] | 292 | 93.715 % of ANP | 235 | 100.104 % of ANP | 
CC[C@H]([C@H]1CC[C@H](C(=O)O)CC1)N(C)c1nc2c(c(N[C@@H](CN3C4CCCC3CC4)c3cc(C)n(C)n3)n1)C[C@H](c1cccc(F)c1)CC2 [Compound 88, (1R,4r)-4-((1R)-1-(((6R)-4-(((1S)-2-(8-azabicyclo[3.2.1]octan-8-yl)-1-(1,5-dimethyl-1H-pyrazol-3-yl)ethyl)amino)-6-(3-fluorophenyl)-5,6,7,8-tetrahydroquinazolin-2-yl)(methyl)amino)propyl)cyclohexane-1-carboxylic acid] | 303 | 98.817 % of ANP |  | 94.699 % of ANP | 255
CC[C@@H](N(C)c1nc2c(c(N[C@@H](CN3C4CCCC3CCC4)c3cnn(C)c3C)n1)C[C@H](c1cccc(F)c1)CC2)C12CC(C(=O)O)(C1)C2 [Compound 89, 3-((R)-1-(((R)-4-(((R)-2-((1S,5S)-9-azabicyclo[3.3.1]nonan-9-yl)-1-(1,5-dimethyl-1H-pyrazol-4-yl)ethyl)amino)-6-(3-fluorophenyl)-5,6,7,8-tetrahydroquinazolin-2-yl)(methyl)amino)propyl)bicyclo[1.1.1]pentane-1-carboxylic acid] | 309 | 98.816 % of ANP |  | 103.084 % of ANP | 268
CC[C@@H](Nc1nc2c(c(N[C@@H](CN3CCCC[C@H]3C)c3cnn(C)c3)n1)C[C@H](c1ccccc1)CC2)[C@H]1CC[C@H](C(=O)O)CC1 [Compound 90, (1R,4r)-4-((R)-1-(((R)-4-(((R)-1-(1-methyl-1H-pyrazol-4-yl)-2-((R)-2-methylpiperidin-1-yl)ethyl)amino)-6-phenyl-5,6,7,8-tetrahydroquinazolin-2-yl)amino)propyl)cyclohexane-1-carboxylic acid] | 313 | 103.308 % of ANP | 224 | 106.347 % of ANP | 
CC[C@H]([C@H]1CC[C@H](C(=O)O)CC1)N(C)c1nc2c(c(N[C@@H](CN3CCCCC3)c3cnn(CC)c3)n1)C[C@H](c1cccc(F)c1)CC2 [Compound 91, (1R,4r)-4-((R)-1-(((R)-4-(((R)-1-(1-ethyl-1H-pyrazol-4-yl)-2-(piperidin-1-yl)ethyl)amino)-6-(3-fluorophenyl)-5,6,7,8-tetrahydroquinazolin-2-yl)(methyl)amino)propyl)cyclohexane-1-carboxylic acid] | 315 | 98.135 % of ANP | 184 | 102.129 % of ANP | 
CC[C@H]([C@H]1CC[C@H](C(=O)O)CC1)N(C)c1nc2c(c(N[C@@H](CN3C4CCCC3CCC4)c3cnn(CC)c3)n1)C[C@H](c1ccccc1)CC2 [Compound 92, (1R,4r)-4-((R)-1-(((R)-4-(((R)-2-((1S,5S)-9-azabicyclo[3.3.1]nonan-9-yl)-1-(1-ethyl-1H-pyrazol-4-yl)ethyl)amino)-6-phenyl-5,6,7,8-tetrahydroquinazolin-2-yl)(methyl)amino)propyl)cyclohexane-1-carboxylic acid] | 317 | 99.678 % of ANP |  | 99.824 % of ANP | 249
CC[C@H]([C@H]1CC[C@H](C(=O)O)CC1)N(C)c1nc2c(c(N[C@@H](CN3CCC[C@H](CO)C3)c3cnn(C)c3)n1)C[C@H](c1ccccc1)CC2 [Compound 93, (1R,4r)-4-((R)-1-(((R)-4-(((R)-2-((S)-3-(hydroxymethyl)piperidin-1-yl)-1-(1-methyl-1H-pyrazol-4-yl)ethyl)amino)-6-phenyl-5,6,7,8-tetrahydroquinazolin-2-yl)(methyl)amino)propyl)cyclohexane-1-carboxylic acid] | 318 | 92.058 % of ANP | 261 | 91.105 % of ANP | 
CC[C@@H](Nc1nc2c(c(N[C@@H](CN3CCCCCC3)c3cnn(CC)c3)n1)C[C@H](c1ccccc1)CC2)[C@H]1CC[C@H](C(=O)O)CC1 [Compound 94, (1R,4r)-4-((R)-1-(((R)-4-(((R)-2-(azepan-1-yl)-1-(1-ethyl-1H-pyrazol-4-yl)ethyl)amino)-6-phenyl-5,6,7,8-tetrahydroquinazolin-2-yl)amino)propyl)cyclohexane-1-carboxylic acid] | 326 | 101.620 % of ANP | 226 | 105.567 % of ANP | 
